The test system of data set [1] is GTV. Description: microbe, parasite or virus in culture. It is filed as cell-based. The settings on record: Guertu virus, Vero, 36 h, read-out: EC50 against GTV.
Data set [2] can be described thus: cytotoxicity by CCK8 assay. The settings on record: African green monkey, Vero cells. For orientation: Tetrazolium assays rely on reduction of a dye to a coloured formazan, in cell work by metabolically active cells.
Data set [3] concerns the target T1, SFTSV EndoN (Dabie bandavirus, UniProt I0DF35). It is filed as biochemical.
Data set [4] deals with SFTSV. Description: microbe, parasite or virus in culture. The settings on record: Severe fever with thrombocytopenia syndrome virus, Vero, 36 h, read-out: EC50 (Vero) against SFTSV.
Data set [5] concerns HRTV. Description: microbe, parasite or virus in culture. It is filed as cell-based. The following applies: Heartland virus, Vero, 36 h, read-out: EC50 against HRTV.
In data set [6] the test system is SFTSV.
The subject of data set [7] is LCMV. The data set can be described thus: organism not typed. It is filed as cell-based, lymphatic choriomeningitis virus. The settings on record: BHK-21, read-out: EC50 against LCMV.
Data set [8] relates to IAV (H1N1). Description: microbe, parasite or virus in culture. It is filed as cell-based. The following applies: Influenza A virus, H1N1, MDCK, read-out: EC50 against IAV (H1N1).
Data set [9] deals with SFTSV. The data set can be described thus: microbe, parasite or virus in culture. Format: cell-based. The settings on record: Severe fever with thrombocytopenia syndrome virus, Huh-7, 36 h, read-out: EC50 (Huh 7) against SFTSV.
Data set [10] concerns SFTSV. It is filed as cell-based, severe fever with thrombocytopenia syndrome virus.
The subject of data set [11] is IAV (H1N1). The settings on record: mouse, in vivo.
For data set [12], the system named is LCMV. The following applies: mouse, in vivo.
In data set [13] the test system is SFTSV. The settings on record: mouse, in vivo.
Data set [14] has as its target T1, SFTSV EndoN. Description: biochemical. It is filed as binding.
The nature of data set [15]: pharmacokinetic analysis in rats. The settings on record: 20 mg/kg.
A short description of data set [16]: water solubility. It is filed as physicochemical.
The target in data set [17] is T2, LCMV EndoN (Lymphocytic choriomeningitis virus, UniProt P14240).
T2 sequence (P14240 26-287 limits assumed): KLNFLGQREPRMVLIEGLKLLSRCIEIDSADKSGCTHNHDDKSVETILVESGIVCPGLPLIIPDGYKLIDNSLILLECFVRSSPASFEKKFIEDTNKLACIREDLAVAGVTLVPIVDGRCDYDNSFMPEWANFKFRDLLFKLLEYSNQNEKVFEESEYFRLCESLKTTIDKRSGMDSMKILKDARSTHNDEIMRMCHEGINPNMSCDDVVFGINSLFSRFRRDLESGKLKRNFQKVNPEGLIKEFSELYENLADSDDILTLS
The data set can be described thus: biochemical.

For data set [18], the target named is T1, SFTSV EndoN. The data set can be described thus: biochemical.
For data set [19] the following is noted: compared with tanshinone IIA; cited from earlier work.
Setting [20] is: male, Sprague-Dawley, rat, plasma, ip.
Where [21] appears, read: male, Sprague-Dawley, rat, plasma, iv.

Read-outs that look alike come from different tables or passages of the source.

T1 sequence (I0DF35 20-221 limits assumed): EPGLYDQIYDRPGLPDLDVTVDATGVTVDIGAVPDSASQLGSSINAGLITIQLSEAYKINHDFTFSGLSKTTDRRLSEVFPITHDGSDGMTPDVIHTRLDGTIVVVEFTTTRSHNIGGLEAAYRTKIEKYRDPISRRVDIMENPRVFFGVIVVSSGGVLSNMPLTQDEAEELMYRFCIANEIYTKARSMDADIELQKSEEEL

In general, EC50 refers to the concentration at which the effect is half-maximal. A word on the CC50: it is the concentration giving 50% cytotoxicity. Lower therefore signals harm at low concentration. For the molecule `O=C1c2c(O)c(=O)ccn2N([C@@H]2c3ccccc3SCc3c2ccc(F)c3F)[C@@H]2COCCN12` [Baloxavir, baloxavir, reference compound], the EC50 stood at 3.74 µM in data set [1]; 5.66 µM in data set [4]; 1.32 µM in data set [5]; 2.63 µM in data set [7]; 0.00102 µM in [8]. The molecule further gave a CC50 at 36 h in [2] of 55.2 µM. In addition, the “inhibition of cleavage of FAM-labeled ssRNA substrate” value in [3] is recorded as “partially inhibited the cleavage”. Also, the “SI (CC50/EC50)” value in data set [6] is 10.
On to `Cc1cc(O)c2c(c1)C(=O)c1cc(O)cc(O)c1C2=O` [Emodin, emodin], for which half-maximal cytotoxicity in data set [2] (CC50 at 36 h) was put at 145 µM. For the same molecule, the figures for the EC50 in [9] and in data set [4] were 1.07 µM and 2.75 µM, respectively. The “SI (CC50/EC50)” value in [6] amounted to 53. The “inhibition of SFTSV in time-of-addition experiment by IFA” value in data set [10] was “significant inhibitory activities under the post-entry and full-time treatment patterns”.
`COc1c(CC=C(C)C)c(O)cc2oc(=O)c(-c3ccc(O)cc3O)cc12` [Glycycoumarin, glycycoumarin] gave a CC50 at 36 h in [2] of 46.3 µM. Further, the EC50 in data set [9] is 3.75 µM; in [4], 1.86 µM. Besides, in [6], the “SI (CC50/EC50)” value is 25.
The matching figures for `COc1c(/C=C/C(=O)c2ccc(O)c(CC=C(C)C)c2)ccc(O)c1O` [Licochalcone D, licochalcone D]: 40 µM, 4.29 µM, 4 µM and 10.
As for `CC(C)=CCc1cc2c(=O)cc(-c3ccc(O)cc3)oc2cc1O` [Licoflavone A, licoflavone A], it took 63.8 µM to reach half-maximal cytotoxicity in data set [2] (CC50 at 36 h). In addition, the values for the EC50 in [9] and in data set [4] were 2.5 µM and 2.8 µM, respectively. Also, in data set [6], the “SI (CC50/EC50)” value amounted to 23. Moreover, the “stage of action in time-of-addition experiment” value (“stage of action” for short) in data set [10] is “acted at both the entry and post-entry stages”.
Turning to `CC(C)=CCc1c(O)ccc(-c2coc3cc(O)cc(O)c3c2=O)c1O` [Licoisoflavone A, licoisoflavone A], in data set [2], half-maximal cytotoxicity (CC50 at 36 h) was put at 167 µM. The EC50 in [9] came out at 1.53 µM; in data set [4], 3.8 µM. Besides, the “SI (CC50/EC50)” value in [6] is given as 44.
As for `NC(=O)c1nc(F)c[nH]c1=O` [T-705, favipiravir, reference compound], in data set [4], the EC50 was ~47 µM. In [11], the “influence on body weight” value is recorded as “negligible influence” and the “lung pathology (H&E staining)” value was “significant pathological remission”. Further, the “influence on body weight” value in data set [12] was “negligible influence”. The “stage of action” value in [10] is “comparable inhibition rate under the post-infection and full-time treatment patterns but had a negligible influence on the virions or at the entry stage”. Besides, in data set [13], the “expression of proinflammatory factors (TNF-α, IL-1β, IL-6, IL-18) in blood and spleen” value is reported as “markedly decreased”; the “toxicity in mice (body weight) within 3 days” value is recorded as “neither tanshinone IIA nor T-705 exhibited obvious toxicity”; the “viral copies in blood and spleen” value was “effectively reduced”.
As usually defined, the Kd is a measure of binding affinity in units of concentration. Low values mean higher affinity, high ones lower affinity. Broadly, the AUC(0-t) is exposure summed from dosing to a finite time, without extrapolation to infinity. Lower therefore signals low exposure. In general, Cmax refers to the maximum level reached in the sampled fluid or tissue. What is called Tmax is the time at which the peak concentration occurs. For orientation: half-life means how long it takes for the measured level to halve. A high value points to slow decline. Turning to `Cc1coc2c1C(=O)C(=O)c1c-2ccc2c(C)cccc12` [Tanshinone I, tanshinone I], the concentration giving a half-maximal response (EC50) turned out to be 0.45 µM in [1]; 0.44 µM in data set [9]; 2.03 µM in data set [4]; 0.32 µM in data set [5]; 365 µM in data set [17]; 2.92 µM in data set [7]. Also, the values for the EC50 in data set [8] and in data set [18] were 1.04 µM and 308 µM, respectively. The molecule also came in with a CC50 at 36 h in data set [2] of 245 µM. Also, in data set [3], the “inhibition of cleavage of FAM-labeled ssRNA substrate” value is on record as “significantly inhibited the cleavage”. For the same molecule, in data set [14], binding was characterised by a dissociation constant (Kd) of 680 µM. Besides, the bioavailability result in data set [15] (i.g. or i.p., SD rats) is given as “poor”. The figures for the AUC(0-t) in data set [15] (setting [20]) and in [15] (setting [21]) were 265 ng·h/mL and 412 ng·h/mL, respectively. In addition, the Cmax in data set [15] (setting [20]) amounted to 12.8 ng/mL; in data set [15] (setting [21]), 284 ng/mL. Also, in data set [15] (setting [20]), the Tmax is 2.5 h. Also, the half-life in [15] (setting [20]) was 35 h; in [15] (setting [21]), 16.1 h. Further, the water solubility result in data set [16] is listed as “poor water solubility”. In addition, the “influence on body weight” value in data set [11] and in data set [12] was “negligible influence” throughout. In addition, the “lung pathology (H&E staining)” value in [11] is reported as “significant pathological remission”. For the same molecule, the “viral copies in the lung” value in [11] is given as “lowered the viral copies in the lung”. Further, the “proinflammatory factors in the lung” value in data set [11] (iv) is recorded as “downregulated”. The “SI (CC50/EC50)” value in data set [6] is given as 121. For the same molecule, the “viral copies and proinflammatory factors in the liver” value in data set [12] (iv) is given as “reduced”. Besides, in [10], the “inhibition of SFTSV in time-of-addition experiment by IFA” value is “significant inhibitory activities under the post-entry and full-time treatment patterns”. Further, the “stage of action” value in data set [10] is recorded as “acted at the post-entry stage”. In data set [13], the body weight change entry is given as “less than 10%”.
Regarding `Cc1coc2c1C(=O)C(=O)c1c-2ccc2c1CCCC2(C)C` [Tanshinone IIA, tanshinone IIA], the EC50 in [1] worked out at 1.2 µM; in data set [4], 2.86 µM; in [5], 1.64 µM; in [17], 597 µM; in [7], 4.64 µM; in data set [8], 4.02 µM. In data set [18], a half-maximal effect (EC50) was put at 917 µM. In data set [2], this molecule came in with a 50% cytotoxic concentration (CC50) at 36 h of 242 µM. Besides, the “inhibition of cleavage of FAM-labeled ssRNA substrate” value in [3] was “significantly inhibited the cleavage”. This molecule also yielded a Kd in [14] of 740 µM. In addition, in data set [6], the “SI (CC50/EC50)” value came out at 85. Further, the “expression of proinflammatory factors (TNF-α, IL-1β, IL-6, IL-18) in blood and spleen” value in data set [13] was “markedly decreased”. For the same molecule, the “toxicity in mice (body weight) within 3 days” value in data set [13] was “neither tanshinone IIA nor T-705 exhibited obvious toxicity”. In addition, in data set [13], the “viral copies in blood and spleen” value is “effectively reduced”.
For `Cc1c(S(=O)(=O)[O-])oc2c1C(=O)C(=O)c1c-2ccc2c1CCCC2(C)C.[Na+]` [tanshinone IIA sulfonate sodium], in data set [6], the “antiviral activity against SFTSV relative to tanshinone I or IIA” value is reported as “poorer antiviral activity”. Also, the water solubility entry in data set [19] was “significantly improved water solubility”.
